These results are taken from patent publication US7956196B2, “1,3-dihydro-benzimidazol-2-ylidene amines as inhibitors of respiratory syncytial virus replication” (Tibotec Pharmaceuticals Ltd., priority 2005, dated 2011).

Read-outs that look alike come from different tables or passages of the source.

In data set [1] the test system is Respiratory Syncytial Virus. Description: In vitro screening for activity against RSV, automated tetrazolium-based (MTT) colorimetric assay in HeLa cells. The data set is classed as cell-based. The settings on record: human respiratory syncytial virus, 168 h, read-out: pIC50 (converted). The text has this:
In vitro screening of compounds of formula (I) for activity against RSV. The percent protection against cytopathology caused by viruses (antiviral activity or EC50) achieved by tested compounds and their cytotoxicity (CC50) are both calculated from dose-response curves. The selectivity of the antiviral effect is represented by the selectivity index (SI), calculated by dividing the CC50 (cytotoxic dose for 50% of the cells) by the EC50 (antiviral activity for 50% of the cells). The tables in the above experimental part list the category to which each of the prepared compounds belong: Compounds belonging to activity category “A” have a pEC50 (-log of EC50 when expressed in molar units) equal to or more than 7. Compounds belonging to activity category “B” have a pEC50 value between 6 and 7.
Automated tetrazolium-based colorimetric assays were used for determination of EC50 and CC50 of test compounds. Flat-bottom, 96-well plastic microtiter trays were filled with 180 μl of Eagle's Basal Medium, supplemented with 5% FCS (0% for FLU) and 20 mM Hepes buffer. Subsequently, stock solutions (7.8×final test concentration) of compounds were added in 45 μl volumes to a series of triplicate wells so as to allow simultaneous evaluation of their effects on virus- and mock-infected cells. Five five-fold dilutions were made directly in the microtiter trays using a robot system. Untreated virus controls, and HeLa cell controls were included in each test. Approximately 100 TCID50 of Respiratory Syncytial Virus was added to two of the three rows in a volume of 50 μl. The same volume of medium was added to the third row to measure the cytotoxicity of the compounds at the same concentrations as those used to measure the antiviral activity. After two hours of incubation, a suspension (4×10^5 cells/ml) of HeLa cells was added to all wells in a volume of 50 μl. The cultures were incubated at 37° C. in a 5% CO2 atmosphere. Seven days after infection the cytotoxicity and the antiviral activity was examined spectrophotometrically. To each well of the microtiter tray, 25 μl of a solution of MTT (3-(4,5-dimethylthiazol-2-yl)-2,5-diphenyltetrazolium bromide) was added. The trays were further incubated at 37° C. for 2 hours, after which the medium was removed from each cup. Solubilization of the formazan crystals was achieved by adding 100 μl 2-propanol. Complete dissolution of the formazan crystals were obtained after the trays have been placed on a plate shaker for 10 min. Finally, the absorbances were read in an eight-channel computer-controlled photometer (Multiskan MCC, Flow Laboratories) at two wavelengths (540 and 690 nm). The absorbance measured at 690 nm was automatically subtracted from the absorbance at 540 nm, so as to eliminate the effects of non-specific absorption.
The percent protection against cytopathology caused by viruses (antiviral activity or EC50) achieved by tested compounds and their cytotoxicity (CC50) were both calculated from dose-response curves. The selectivity of the antiviral effect is represented by the selectivity index (SI), calculated by dividing the CC50 (cytotoxic dose for 50% of the cells) by the EC50 (antiviral activity for 50% of the cells).

The mark [2] stands for this setting: protection against RSV cytopathology in HeLa cells, MTT readout seven days after infection.

In turn, `Cc1cc(C)cc(CN=c2n(Cc3ccc(C#N)cc3)c3ccccc3n2Cc2cccc3cccnc23)c1` [Compound 16] registered a melting point of 142 °C. Further, the IC50 in data set [1] (HeLa) is 251 nM.

In the case of `N#Cc1ccc(Cn2c(=NCCC(c3ccccc3)c3ccccc3)n(Cc3cccc4cccnc34)c3ccccc32)cc1` [Compound 18], the melting point was found to be 184 °C. Moreover, the IC50 in data set [1] (setting [2]) was 316 nM.

`N#Cc1ccc(Cn2c(=NC(=O)c3cccc(Cl)c3)n(Cc3cccc4cccnc34)c3ccccc32)cc1` [Compound 19] yielded a melting point of 160 °C. For the same molecule, the IC50 in data set [1] (setting [2]) is 316 nM.

For the molecule `Cc1cccc(C(=O)N=c2n(Cc3ccc(C#N)cc3)c3ccccc3n2Cc2cccc3cccnc23)c1` [Compound 20], the melting point came to 158 °C. Further, the IC50 in data set [1] (setting [2]) is 398 nM.

As to `N#Cc1ccc(Cn2c(=NC(=O)c3ccc(Cl)cc3)n(Cc3cccc4cccnc34)c3ccccc32)cc1` [Compound 21], the melting point stood at 154 °C. Moreover, the IC50 in data set [1] (setting [2]) is 398 nM.

Regarding `N#Cc1ccc(Cn2c(=NC(=O)c3cccc([N+](=O)[O-])c3)n(Cc3cccc4cccnc34)c3ccccc32)cc1` [Compound 22], the melting point was found to be 222 °C. The IC50 in data set [1] (setting [2]) was 631 nM.

In the case of `N#Cc1ccc(Cn2c(=NC(=O)c3ccc(Cl)cc3Cl)n(Cc3cccc4cccnc34)c3ccccc32)cc1` [Compound 23], the melting point came out at 114 °C. Further, the IC50 in data set [1] (HeLa) was 631 nM.

The molecule `N#Cc1ccc(Cn2c(=NC(=O)c3cc(C(F)(F)F)cc(C(F)(F)F)c3)n(Cc3cccc4cccnc34)c3ccccc32)cc1` [Compound 24] yielded a melting point of 190 °C. In addition, the IC50 in data set [1] (setting [2]) is 794 nM.

With `N#Cc1ccc(Cn2c(=NC(=O)c3ccc(Br)cc3)n(Cc3cccc4cccnc34)c3ccccc32)cc1` [Compound 26], the melting point was found to be 125 °C. The IC50 in data set [1] (setting [2]) was 10000 nM.

The molecule `COc1ccc(C(=O)N=c2n(Cc3ccc(C#N)cc3)c3ccccc3n2Cc2cccc3cccnc23)cc1` [Compound 27] yielded a melting point of 150 °C. Also, in data set [1] (HeLa), the IC50 was 20000 nM.

The molecule `N#Cc1ccc(Cn2c(=NC(=O)c3ccc([N+](=O)[O-])cc3)n(Cc3cccc4cccnc34)c3ccccc32)cc1` [Compound 28] displayed a melting point of 196 °C. Also, the IC50 in data set [1] (setting [2]) was 31600 nM.

As for `N#Cc1ccc(Cn2c(=NC(=O)c3ccc(-c4ccccc4)cc3)n(Cc3cccc4cccnc34)c3ccccc32)cc1` [Compound 29], the melting point stood at 100 °C. For the same molecule, the IC50 in data set [1] (setting [2]) is 39800 nM.

The molecule `CC(C)Oc1ccc(C(=O)N=c2n(Cc3ccc(C#N)cc3)c3ccccc3n2Cc2cccc3cccnc23)cc1` [Compound 30] displayed a melting point of 118 °C. Also, the IC50 in data set [1] (setting [2]) was 50100 nM.

The molecule `N#Cc1ccc(Cn2c(=NC(=O)c3ccc(C#N)cc3)n(Cc3cccc4cccnc34)c3ccccc32)cc1` [Compound 31] had a melting point of 182 °C. The IC50 in data set [1] (setting [2]) was > 100000 nM.

`COc1cc(C(=O)N=c2n(Cc3ccc(C#N)cc3)c3ccccc3n2Cc2cccc3cccnc23)cc(OC)c1OC` [Compound 32] registered a melting point of 108 °C. In addition, the IC50 in data set [1] (HeLa) was > 100000 nM.

`N#Cc1ccc(Cn2c(=NC(=O)c3ccc(Oc4ccccc4)cc3)n(Cc3cccc4cccnc34)c3ccccc32)cc1` [Compound 33] had a melting point of 66 °C. Further, in data set [1] (setting [2]), the IC50 is 100000 nM.

For the molecule `COC(=O)c1ccc(Cn2c(=NCCc3cccc(F)c3)n(Cc3cccc4cccnc34)c3ccccc32)cc1` [Compound 36], the melting point came out at 89 °C. Besides, the IC50 in data set [1] (setting [2]) is 79.4 nM.

`COC(=O)c1ccc(Cn2c(=NCCC(c3ccccc3)c3ccccc3)n(Cc3cccc4cccnc34)c3ccccc32)cc1` [Compound 38] displayed a melting point of 146 °C. Moreover, the IC50 in data set [1] (setting [2]) was 158 nM.

For the molecule `COC(=O)c1ccc(Cn2c(=NC(=O)c3cc(C(F)(F)F)cc(C(F)(F)F)c3)n(Cc3cccc4cccnc34)c3ccccc32)cc1` [Compound 39], the melting point stood at 204 °C. For the same molecule, the IC50 in data set [1] (setting [2]) is 1580 nM.

Take `COC(=O)c1ccc(Cn2c(=NC(=O)c3ccc(Br)cc3)n(Cc3cccc4cccnc34)c3ccccc32)cc1` [Compound 40]: the melting point amounted to 131 °C. In data set [1] (setting [2]), the IC50 is > 100000 nM.

As to `COC(=O)c1cccc(Cn2c(=NCCc3ccc(Br)cc3)n(Cc3cccc4cccnc34)c3ccccc32)c1` [Compound 43], the melting point came to 80 °C. For the same molecule, the IC50 in data set [1] (setting [2]) was 79.4 nM.

Molecule `COc1ccc(Cn2c(=NCCc3ccc(Br)cc3)n(Cc3cccc4cccnc34)c3ccccc32)cc1` [Compound 44] had a melting point of 87 °C. Further, the IC50 in data set [1] (setting [2]) was 79.4 nM.

`COc1ccc(CCN=c2n(Cc3ccc(Cl)cc3)c3ccccc3n2Cc2cccc3cccnc23)cc1` [Compound 46] showed a melting point of 250 °C. In addition, the IC50 in data set [1] (setting [2]) is 100 nM.

As for `COc1ccc(C(=O)Cn2c(=NCCc3ccc(Br)cc3)n(Cc3cccc4cccnc34)c3ccccc32)cc1` [Compound 50], the melting point was found to be 152 °C. Further, the IC50 in data set [1] (setting [2]) was 316 nM.

As to `O=C(Cn1c(=NCCc2ccc(Br)cc2)n(Cc2cccc3cccnc23)c2ccccc21)c1ccc(Br)cc1` [Compound 52], the melting point is 120 °C. For the same molecule, the IC50 in data set [1] (HeLa) is 631 nM.

`Cc1ccc(O)c(Cn2c(=NC3CCN(CCN)CC3)n(Cc3ccc(C#N)cc3)c3ccccc32)n1` [Compound 55] registered a melting point of 212 °C. Also, the IC50 in data set [1] (setting [2]) is 63.1 nM.

`Cc1ccc(O)c(Cn2c(=NCCc3ccc(Br)cc3)n(Cc3ccc(C#N)cc3)c3ccccc32)n1` [Compound 57] yielded a melting point of 204 °C. Besides, the IC50 in data set [1] (setting [2]) was 251 nM.

In turn, `Cc1ccc(CCCO)c(NCc2ccc3c(c2)n(Cc2nc(C)ccc2O)c(=N)n3C)c1` [Compound 58] gave a melting point of 195 °C. In addition, the IC50 in data set [1] (setting [2]) was 3.16 nM.
